Measured values from PubChem BioAssay AID1996.
Converted amounts (≈) assume the structure as drawn.

Conditions: buffer; pH 7.4; 200.0 µM

Row | solubility kinetic [µg/mL] | Structure (SMILES)
1 | > 43.2 | O=C1CN(S(=O)(=O)c2ccccc2)c2ccccc2N1
2 | > 42.4 | Cc1ccc(S(=O)(=O)NCCCN2CCCC2)cc1
3 | 19.3 (≈ 77.1 µM) | Oc1ccccc1CNc1cccc2cccnc12
4 | 18 (≈ 49.9 µM) | Cc1c(Cl)cccc1NC(=O)CNC(=O)c1ccc2c(c1)OCCO2
5 | 1.4 (≈ 4.65 µM) | Cc1cc(SCc2ccc(Cl)c(Cl)c2)nc(=O)[nH]1
6 | 33.7 (≈ 111 µM) | COc1ccc(C(CC(=O)Nc2nccs2)C(C)C)cc1 (stereo not given)
7 | > 16.7 | Nc1ccnc(=O)[nH]1
8 | > 56.5 | CCOc1cc(N2CCOCC2)c(OCC)cc1NC(=O)Cn1cnnn1
9 | < 0.2 | CC(C)(C)Nc1ncnc2sc(-c3ccccc3)cc12
10 | > 48.1 | CC(=O)N1CCN(S(=O)(=O)c2ccc(F)c(Cl)c2)CC1
11 | > 46.7 | CCOP(=O)(OCC)/C(C#N)=C(\O)c1ccc(OC)cc1
12 | 0.8 (≈ 2.22 µM) | CCOc1ccc(NC(=O)c2cccc(NC(=O)c3ccccc3)c2)cc1
13 | > 58.4 | CCCc1cc(=O)[nH]c(SCC(=O)c2cc(C)n(CC3CCCO3)c2C)n1 (stereo not given)
14 | 1.2 (≈ 4.12 µM) | CC(=O)Nc1ccc(/C=C2\CCc3ccccc3C2=O)cc1
15 | > 44.8 | O=C(O)CCSc1nc2ccccc2n1-c1ccccc1
16 | > 50 | Cc1ccc(S(=O)(=O)NC(Cc2ccccc2)C(=O)O)cc1C (stereo not given)
17 | > 60.9 | CC(=O)Nc1ccc(SCC(=O)N(C)CC(=O)Nc2ccccc2Cl)cc1
18 | 44 (≈ 147 µM) | O=S(=O)(NC(=S)NC1CCCCC1)c1ccccc1
19 | > 33.6 | CNC(=O)C12N=CNN=C1N(C)C(=O)N2C (stereo not given)
20 | 39.9 (≈ 137 µM) | Cc1[nH]c2ccccc2c1C(c1ccccn1)N1CCCC1 (stereo not given)

Row | solubility kinetic [µg/mL] | Structure (SMILES)
21 | < 0.2 | O=C(Nc1nc(-c2ccncc2)cs1)c1ccc(F)cc1
22 | 2.2 (≈ 7.85 µM) | CCSc1nc2sc3c(c2c(=O)n1CC)CCC3
23 | 66.7 (≈ 144 µM) | COc1cc(C2/C(=C(\O)c3ccc4c(c3)OCCO4)C(=O)C(=O)N2Cc2ccco2)ccc1O (stereo not given)
24 | 40.2 (≈ 150 µM) | CC1CN(C(=S)Nc2cccc(F)c2)CC(C)O1 (stereo not given)
25 | 4.7 (≈ 17 µM) | COc1ccccc1NCC(=O)c1ccc(Cl)cc1
26 | > 32.3 | O=c1nc2n(c3ncccc13)CCCCC2
27 | > 51 | CCS(=O)(=O)N1CCN(c2ccnc3cc(Cl)ccc23)CC1
28 | 0.2 (≈ 0.655 µM) | Cc1cccc(-c2ncc(S(=O)(=O)C(C)(C)C)c(N)n2)c1
29 | 25.9 (≈ 73.9 µM) | CCN(CC)CCn1c(NC(=O)c2ccc(C)cc2)nc2ccccc21
30 | 31.4 (≈ 120 µM) | N#Cc1c(N)c(C(=O)c2ccccc2)n2ccccc12
31 | 13.3 (≈ 46.8 µM) | CC1CCCN(S(=O)(=O)c2cccc([N+](=O)[O-])c2)C1 (stereo not given)
32 | > 48.2 | Cc1ccc(N2C(=O)[C@@H]3C(c4cccnc4)=NO[C@@H]3C2=O)c(C)c1
33 | 8.6 (≈ 28.8 µM) | O=C(OCC(=O)N1CCc2ccccc21)c1ccc[nH]c1=O
34 | 17.3 (≈ 63.3 µM) | O=C(COc1ccccc1[N+](=O)[O-])Nc1cccnc1
35 | > 48.8 | CCc1nnc(NC(=O)CS(=O)(=O)Cc2ccccc2)s1
36 | 36.9 (≈ 139 µM) | CCn1c(/N=C/c2ccccc2O)nc2ccccc21
37 | 33.5 (≈ 100 µM) | O=C(CCCNC(=O)c1ccc(Cl)cc1)Nc1ccccc1F
38 | > 73.4 | C[C@H](NC(=O)c1ccco1)C(=O)Nc1cc(S(=O)(=O)N2CCCC2)ccc1OCC(F)(F)F
39 | > 42.8 | Cc1ccc2c(c1)sc(C)[n+]2CCCS(=O)(=O)[O-]
40 | < 0.8 | Cc1onc(-c2ccccc2)c1C(=O)OCCOc1cccc(Cl)c1

Row | solubility kinetic [µg/mL] | Structure (SMILES)
41 | > 44.2 | Cc1noc(C)c1S(=O)(=O)Nc1ccc(C(C)C)cc1
42 | 50.2 (≈ 143 µM) | Cc1ccc(NS(=O)(=O)c2cccc3nsnc23)cc1[N+](=O)[O-]
43 | > 40.4 | O=C(Cn1nc(C(F)F)cc1C1CC1)N1CCCC1
44 | > 53.6 | COc1cc2c(cc1OC)CN(C(=O)CSc1ccccc1C)CC2
45 | 16.5 (≈ 47 µM) | O=S(=O)(NCc1ccccn1)c1ccc(Cl)c(C(F)(F)F)c1
46 | 8.5 (≈ 17.8 µM) | CCCCN(C(=O)c1cccc(-c2ccc(OC(C)=O)cc2)c1)c1c(N)n(CCC)c(=O)[nH]c1=O
47 | 3.7 (≈ 12.1 µM) | NC(=O)NC(=O)CN1c2cccc3cccc(c23)S1(=O)=O
48 | 40.3 (≈ 143 µM) | O=C(Nc1cccc2ccccc12)c1ccc([N+](=O)[O-])o1
49 | 44.3 (≈ 126 µM) | C=CCOc1c(Br)cc(/C=C2/C(=O)ON=C2C)cc1OC
50 | > 40.2 | Cc1ccc(/C=N/NC(=O)c2ccc3nc[nH]c3c2)o1
51 | 8.1 (≈ 33.2 µM) | COc1ccc(NC(=O)Nc2cnccn2)cc1
52 | > 65.9 | Cc1ccc(NS(=O)(=O)c2ccccc2[N+](=O)[O-])cc1S(=O)(=O)N1CCCCC1
53 | > 34.7 | O=C(Nc1cccnc1)Nc1cccc(F)c1
54 | > 39.1 | Cc1ccc(NC(=O)c2sc(C)nc2C)c(C)c1
55 | > 37.7 | CCOC(=O)C(=O)Nc1ccccc1C(=O)OC
56 | 24.9 (≈ 79.7 µM) | COc1cccc(N2C(=O)CN(Cc3ccccc3)C2=S)c1
57 | 33.2 (≈ 124 µM) | CCOC(=O)c1ccc(NCCOC)c([N+](=O)[O-])c1
58 | 19 (≈ 65.2 µM) | O=C1c2ccccc2-c2ccc(C(=O)N3CCCCC3)cc21

Row | Structure (SMILES) | solubility kinetic [µg/mL]
59 | OC1/C(=C/c2ccccc2F)N2CCC1CC2 (stereo not given) | > 35
60 | COc1ccc(C(=O)C2CCCN(Cc3cccc(C)n3)C2)c(OC)c1 (stereo not given) | > 53.2
